Data set [1] is described as follows: Sensory evaluation of degree of sweetness relative to sugar. Conditions: for degrees of sweetness: relative to a degree of sweetness of a 4% aqueous sucrose solution; for degree of sweetness: sensory evaluation.
Excerpt: ^3 Degree of sweetness relative to a degree of sweetness of a 4%
The nature of data set [2]: Stability (half-life) in phosphate buffer of pH 3 at 70° C. It is filed as physicochemical. Conditions: acidic aqueous solution. Here is the method: The peptides of the present invention may be 2 to 15 times as stable as aspartame when measured in a phosphate buffer of pH 3 at 70° C. This range in stability as compared to aspartame includes all specific values and subranges therebetween. The half-lives (in a phosphate buffer of pH 3 at 70° C.) of α-L-aspartyl-D-valine (R)-α-methylthiomethylbenzylamide, α-L-aspartyl-D-isoleucine (R)-α-methylthiomethylbenzylamide and α-L-aspartyl-D-valine (S)-α-methoxycarbonylmethylbenzylamide in an acidic aqueous solution were approximately 220 hours, 650 hours and 139 hours respectively.

Peptide text beside a SMILES is read from it.

The record followed here is patent publication US5958496A, “Aspartyl dipeptide amide derivatives and sweeteners” (Ajinomoto Co., Inc., priority 1996, dated 1999).

As usually defined, the half-life is how long it takes for the measured level to halve. A lower half-life goes with fast loss.

For the molecule `COC(=O)CC(NC(=O)[C@H](NC(=O)[C@@H](N)CC(=O)O)C(C)C)C1CCCCC1` (mixture of isomers) [Example 6, α-L-aspartyl-D-valine (RS)-α-cyclohexyl-β-methoxycarbonylethylamide], in data set [1], the degrees of sweetness came to 400 and the “Degree of sweetness (relative to sugar)” value worked out at 400 times.

For the molecule `CC[C@@H](NC(=O)[C@@H](N)CC(=O)O)C(=O)NC(CC(=O)OC)c1ccccc1` (mixture of isomers) [Example 10, α-L-aspartyl-D-α-aminobutyric acid (RS)-α-methoxycarbonylmethylbenzylamide], in data set [1], the degrees of sweetness was 800 and the “Degree of sweetness (relative to sugar)” value worked out at 800 times.

In the case of `CC[C@@H](NC(=O)[C@@H](N)CC(=O)O)C(=O)NC(CC(=O)OC)c1ccc(OC)cc1` (mixture of isomers) [Example 11], in data set [1], the degrees of sweetness turned out to be 200 and the “Degree of sweetness (relative to sugar)” value is given as 200 times.

As for `CC[C@@H](NC(=O)[C@@H](N)CC(=O)O)C(=O)NC(CC(=O)OC)c1cccc2c1OCO2` (mixture of isomers) [Example 12], in data set [1], the degrees of sweetness is on record as 250 and the “Degree of sweetness (relative to sugar)” value is 250 times.

On to `CC[C@@H](NC(=O)[C@@H](N)CC(=O)O)C(=O)NC(CC(=O)OC)c1ccc(O)cc1` (mixture of isomers) [Example 13], for which, in data set [1], the degrees of sweetness is 200 and the “Degree of sweetness (relative to sugar)” value turned out to be 200 times.

For the molecule `CC[C@@H](NC(=O)[C@@H](N)CC(=O)O)C(=O)NC(CC(=O)OC)c1ccc(C)cc1` (mixture of isomers) [Example 14], in data set [1], the degrees of sweetness was 200 and the “Degree of sweetness (relative to sugar)” value came out at 200 times.

`CC[C@@H](NC(=O)[C@@H](N)CC(=O)O)C(=O)NC(CC(=O)OC)C1CCCCC1` (mixture of isomers) [Example 15, α-L-aspartyl-D-α-aminobutyric acid (RS)-α-cyclohexyl-β-methoxycarbonylethylamide]: in data set [1], the degrees of sweetness stood at 700 and the “Degree of sweetness (relative to sugar)” value is given as 700 times.

In the case of `CC[C@@H](NC(=O)[C@H](CC(=O)O)NCCC(C)(C)C)C(=O)NC(CC(=O)OC)c1ccccc1` (mixture of isomers) [Example 18, N-3,3-dimethylbutyl-α-L-aspartyl-D-α-aminobutyric acid (RS)-α-methoxycarbonylmethylbenzylamide], in data set [1], the degrees of sweetness came out at 1250 and the “Degree of sweetness (relative to sugar)” value is recorded as 1,250 times.

`COC(=O)CC(NC(=O)[C@H](NC(=O)[C@H](CC(=O)O)NCCC(C)(C)C)C(C)C)c1ccccc1` (mixture of isomers) [Example 19, N-3,3-dimethylbutyl-α-L-aspartyl-D-valine (RS)-α-methoxycarbonylmethylbenzylamide]: in data set [1], the degrees of sweetness was 1250 and the “Degree of sweetness (relative to sugar)” value is given as 1,250 times.

In the case of `CC[C@@H](NC(=O)[C@H](CC(=O)O)NCCC(C)(C)C)C(=O)NC(CC(=O)OC)C1CCCCC1` (mixture of isomers) [Example 20, N-3,3-dimethylbutyl-α-L-aspartyl-D-α-aminobutyric acid (RS)-α-cyclohexyl-β-methoxycarbonylethylamide], in data set [1], the degrees of sweetness is 1250 and the “Degree of sweetness (relative to sugar)” value is 1,250 times.

With `CSC[C@H](NC(=O)[C@H](NC(=O)[C@@H](N)CC(=O)O)C(C)C)c1ccccc1` [Example 1, α-L-aspartyl-D-valine (R)-α-methylthiomethylbenzylamide], in data set [1], the degrees of sweetness came out at 3000, the “Degree of sweetness (relative to sugar)” value is reported as 3,000 times and the degree of sweetness result was “approximately 3,000 times that of sugar”. For the same molecule, the half-life result in data set [2] was “approximately 220 hours”.

Take `CSC[C@H](NC(=O)[C@@H](C)NC(=O)[C@@H](N)CC(=O)O)c1ccccc1` [Example 2, α-L-aspartyl-D-alanine (R)-α-methylthiomethylbenzylamide]: in data set [1], the degrees of sweetness is given as 1000 and the “Degree of sweetness (relative to sugar)” value is on record as 1,000 times.

`CC[C@@H](NC(=O)[C@@H](N)CC(=O)O)C(=O)N[C@@H](CSC)c1ccccc1` [Example 3, α-L-aspartyl-D-α-aminobutyric acid (R)-α-methylthiomethylbenzylamide]: in data set [1], the degrees of sweetness turned out to be 4000, the “Degree of sweetness (relative to sugar)” value is listed as 4,000 times and the degree of sweetness entry was “approximately 4,000 times that of sugar”.

As to `CC[C@@H](C)[C@@H](NC(=O)[C@@H](N)CC(=O)O)C(=O)N[C@@H](CSC)c1ccccc1` [Example 4, α-L-aspartyl-D-isoleucine (R)-α-methylthiomethylbenzylamide], in data set [1], the degrees of sweetness was determined as 5000, the “Degree of sweetness (relative to sugar)” value is 5,000 times and the degree of sweetness entry is recorded as “approximately 5,000 times that of sugar”. In data set [2], the half-life was ~27.1 days.

For `COC(=O)C[C@H](NC(=O)[C@H](NC(=O)[C@@H](N)CC(=O)O)C(C)C)c1ccccc1` [Example 5, α-L-aspartyl-D-valine (S)-α-methoxycarbonylmethylbenzylamide], in data set [1], the degrees of sweetness came out at 1500, the “Degree of sweetness (relative to sugar)” value was 1,500 times and the degree of sweetness result was “approximately 1,500 times that of sugar”. For the same molecule, the half-life in data set [2] is ~5.79 days.

`CC[C@@H](NC(=O)[C@@H](N)CC(=O)O)C(=O)NC1(c2ccccc2)CCCC1` [Example 7, α-L-aspartyl-D-α-aminobutyric acid α-phenylcyclopentylamide]: in data set [1], the degrees of sweetness was 750 and the “Degree of sweetness (relative to sugar)” value is 750 times.

With `CC(C)[C@@H](NC(=O)[C@@H](N)CC(=O)O)C(=O)NC1(c2ccccc2)CCCC1` [Example 8, α-L-aspartyl-D-valine α-phenylcyclopentylamide], in data set [1], the degrees of sweetness came out at 1200, the “Degree of sweetness (relative to sugar)” value was 1,200 times and the degree of sweetness result is recorded as “approximately 1,200 times that of sugar”.

With `CC[C@@H](C)[C@@H](NC(=O)[C@@H](N)CC(=O)O)C(=O)NC(C)(C)c1ccccc1` [Example 9, α-L-aspartyl-D-isoleucine α,α-dimethylbenzylamide], in data set [1], the degrees of sweetness stood at 250 and the “Degree of sweetness (relative to sugar)” value turned out to be 250 times.

On to `CC(C)[C@@H](NC(=O)[C@@H](N)CC(=O)O)C(=O)NC(C)(C)c1ccccc1` [Example 16, α-L-aspartyl-D-valine α,α-dimethylbenzylamide], for which, in data set [1], the degrees of sweetness is 500 and the “Degree of sweetness (relative to sugar)” value is given as 500 times.

`CSC[C@H](NC(=O)[C@H](NC(=O)[C@H](CC(=O)O)NCCC(C)(C)C)C(C)C)c1ccccc1` [Example 17, N-3,3-dimethylbutyl-α-L-aspartyl-D-valine (R)-α-methylthiomethylbenzylamide]: in data set [1], the degrees of sweetness was determined as 5000, the “Degree of sweetness (relative to sugar)” value is given as 5,000 times and the degree of sweetness result was “approximately 5,000 times that of sugar”.

Take `COC(=O)[C@H](Cc1ccccc1)NC(=O)[C@@H](N)CC(=O)O` [aspartame, reference compound] (H-Asp-Phe-OMe): the half-life result in data set [2] is on record as “approximately 23 hours”.
